Measured values: patent publication US10336792B2, “Antimicrobial peptide dendrimers” (priority 2014, dated 2019)
Converted amounts (≈) assume the structure as drawn. Positions of bridges follow the written chain, without caps; N, C: chain ends. Non-standard residues stand in square brackets, D forms with d. Residues, ends and D or L forms follow the SMILES beside them. Groups on a side chain read outwards from the residue. Chains are numbered I, II in the order given. *: point of attachment. Lauroyl = CCCCCCCCCCCC(=O)*; dDap = NC[C@@H](N)C(=O)O

Key:
male wistar rats = assay: In-vivo toxicity study, single i.v. injection; parameters: species or system rat; conditions: for visible effects and behaviour after injection: 2 mg/kg single i.v. dose into tail vein, two rats; for survival rate: 2 mg/kg single i.v. dose, monitored 2 days
Source text: 4-6 weeks old male wistar rats (weight range 200-500 g) were used in toxicity experiments. Rats were obtained from Zentrale Tierställe Bern (Department of Clinical Research from University of Bern) and housed 4 per cage. Each experimental group includes two rats. All procedures, care and handling of the animals were reviewed and approved by the Veterinärdienst of Kanton Bern, Schweiz and execute in collaboration with the group of Prof. Hugues Abriel from Department of Clinical Research from University of Bern.
Rats were anesthetized with 4% isoflurane and 1 L/min oxygen in an induction chamber. When the rats were sleeping they were transferred on a clinical drape and anesthetized with 1-2% isoflurane and 0.8 l/min oxygen via a mask. The tail was warmed up with warm water and disinfected with 70% ethanol. The intravenous (i.v.) injections into the tail vein included a single dose of the AMPD of 2 mg/kg rat in 500 μL PBS. Before injection each rat was weighted individually and the exact dosage was determined. All rats, including control groups with no injection and i.v. injection of 500 μL PBS, were monitored for their survival and behavior for two days.
The compounds MSt-112, a 3rd generation AMPD with KL motive, MSt-181 its D-enantiomer analogue, MSt-242, a the 3rd generation with RL motive, and MSt-114 with Tyr instead of Lys in the 3rd generation were used for in vivo experiments with male wistar rats to assess their toxicity. These compounds were selected due to their high potencies and high MHCs values, which are at least 10 times higher than their activities. Each compound (concentration of 2 mg/kg) was applied to two rats by intravenous injection into the tail vein to observe if the AMPDs are well tolerated or may cause adverse effects. The concentration used was approx. 5-10 times higher than the MICs. […] The behaviour of the rats was normal. […] Therefore it seems that rats tolerate AMPDs very well, without visible site effects or even casualties.

[1] = tested on: Pseudomonas aeruginosa (strain PA01); assay: microbe, parasite or virus in culture; assay type: cell-based; conditions: strain
Method in brief: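 Broth microdilution MIC against P. aeruginosa PAO1 in LB: peptides serially diluted by ⅔, bacteria added at OD600 0.001 and incubated 18–24 h at 37 °C. MTT added; MIC is the lowest concentration preventing visible growth.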

[2] = tested on: Bacillus subtilis (strain BR151); assay type: cell-based; conditions: strain BR151
Method in brief: (§1)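 Broth microdilution MIC in LB; overnight cultures diluted to OD600 0.001 and mixed 1:1 with ⅔-serially diluted samples (stock 1 mg mL^−1 in H2O), 37° C for 18-24 h. MTT (0.1%) added; MIC read by eye as lowest concentration inhibiting visible growth (yellow).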

[3] = tested on: Escherichia coli (strain DH5α); assay type: cell-based; conditions: DH5α
Method in brief: as §1

[4] = tested on: Staphylococcus aureus (COL, MRSA reference strain); assay type: cell-based; conditions: COL, reference strain
Experimental: Antimicrobial activity was assayed against P. aeruginosa PA01 (WT), P. aeruginosa PT1482 (A-), PT1485 (A-B-), PT1149 (A-B-C-algC), PT331 (Z61) (LPS mutants), P. aeruginosa PEJ2.6, PEJ9.1, ZEM1.A, ZEM9.A (clinical isolates from Université de Genève/Centre Médical Universitaire), Burkholderia cenocepacia (B. ceno), Staphylococcus aureus (S. aureus, MRSA strain) and Acinetobacter baumannii (A. baum) (clinical isolates from Université de Genève/Centre Médical Universitaire). To determine the minimal inhibitory concentration (MIC), microdilution broth method was used. A colony of bacteria was grown in MH-medium overnight at 37° C. The samples were prepared as stock solutions of 8 mg mL^−1 in H2O, diluted to the beginning concentration of 32, 64, 128 or 256 μg/mL in 300 μL MH-medium, added to the first well of 96-well microtiterplate (TPP, untreated) and diluted serially by ½. The concentration of the bacteria was quantified by measuring absorbance at 600 nm and diluted to OD600=0.022 in MH-medium. The sample solutions (150 μL) were mixed with 4 μL diluted bacterial suspension with a final inoculation of about of 5×10^5 CFU. The plates were incubated at 37° C. until satisfactory growth (˜18 h). For each test, two columns of the plate were kept for sterility control (SC, broth only) and growth control (GC, broth with bacterial inoculums, no antibiotics). The minimal inhibitory concentration (MIC) was defined as the lowest concentration of the antimicrobial substance (peptide dendrimer) that inhibited visible growth of the tested bacteria with the unaided eye. For microbiological study Polymyxin was used as references.
Ten of the most promising compounds (FIG. 5) were tested for their efficiency against four clinical isolates of P. aeruginosa (ZEM9.A, ZEM1.A, PEJ2.6, PEJ9.1), one S. aureus (COL, MRSA reference strain) and one A. baumannii strain. For the experiments in Genève the peptide dendrimers and reference compounds (polymyxin) were dissolved in PBS and the assay was carried out in Müller-Hinton (MH) broth with a two-fold dilution.

Row | MIC E. coli DH5α [3] | MIC S. aureus (COL, MRSA reference strain) [4] | SMILES | visible effects and behaviour after injection (male wistar rats) | survival rate (male wistar rats) | MIC P. aeruginosa PAO1 [1] | MIC B. subtilis BR151 [2]
1 |  |  | CC(C)C[C@H](NC(=O)[C@H](CCCCN)NC(=O)[C@H](CCCCNC(=O)[C@H](CC(C)C)NC(=O)[C@H](CCCCN)NC(=O)[C@H](CCCCNC(=O)[C@H](CC(C)C)NC(=O)[C@H](CCCCN)NC(=O)[C@H](CCCCNC(=O)[C@H](Cc1ccc(O)cc1)NC(=O)[C@@H](N)CCCCN)NC(=O)[C@H](Cc1ccc(O)cc1)NC(=O)[C@@H](N)CCCCN)NC(=O)[C@H](CC(C)C)NC(=O)[C@H](CCCCN)NC(=O)[C@H](CCCCNC(=O)[C@H](Cc1ccc(O)cc1)NC(=O)[C@@H](N)CCCCN)NC(=O)[C@H](Cc1ccc(O)cc1)NC(=O)[C@@H](N)CCCCN)NC(=O)[C@H](CC(C)C)NC(=O)[C@H](CCCCN)NC(=O)[C@H](CCCCNC(=O)[C@H](CC(C)C)NC(=O)[C@H](CCCCN)NC(=O)[C@H](CCCCNC(=O)[C@H](Cc1ccc(O)cc1)NC(=O)[C@@H](N)CCCCN)NC(=O)[C@H](Cc1ccc(O)cc1)NC(=O)[C@@H](N)CCCCN)NC(=O)[C@H](CC(C)C)NC(=O)[C@H](CCCCN)NC(=O)[C@H](CCCCNC(=O)[C@H](Cc1ccc(O)cc1)NC(=O)[C@@H](N)CCCCN)NC(=O)[C@H](Cc1ccc(O)cc1)NC(=O)[C@@H](N)CCCCN)C(N)=O [MSt-114, (KY)8(KKL)4(KKL)2(KKL)] (I: H-KYK([Tyr-Lys])KLKKLKKL-NH2 / II: H-KYK([Tyr-Lys])KLKKL / III: H-KYK([Tyr-Lys])KL / IV: H-KYK([Tyr-Lys])KL; amide I:6-IV:C, I:9-II:C, II:6-III:C) | slightly bluish extremities which subsided after approx. 5 min | 100% | 2 µg/mL (≈ 0.405 µM) | 13 µg/mL (≈ 2.63 µM)
2 | 1 µg/mL (≈ 0.416 µM) | below 20 μg/mL | CCCCCCCCCCCC(=O)NCCCC[C@H](NC(=O)[C@H](CC(C)C)NC(=O)[C@H](CCCCN)NC(=O)[C@H](CCCCNC(=O)[C@H](CC(C)C)NC(=O)[C@H](CCCCN)NC(=O)[C@H](CCCCNC(=O)[C@H](CC(C)C)NC(=O)[C@@H](N)CCCCN)NC(=O)[C@H](CC(C)C)NC(=O)[C@@H](N)CCCCN)NC(=O)[C@H](CC(C)C)NC(=O)[C@H](CCCCN)NC(=O)[C@H](CCCCNC(=O)[C@H](CC(C)C)NC(=O)[C@@H](N)CCCCN)NC(=O)[C@H](CC(C)C)NC(=O)[C@@H](N)CCCCN)C(N)=O [MSt-263, (KL)4(KKL)2(KKLKC12)] (I: H-KLK([Leu-Lys])KLKKLK(Lauroyl)-NH2 / II: H-KLK([Leu-Lys])KL; amide I:6-II:C) |  |  | 1 µg/mL (≈ 0.416 µM) | 2 µg/mL (≈ 0.833 µM)
3 | 4 µg/mL (≈ 0.858 µM) |  | CC(C)C[C@@H](NC(=O)[C@@H](CCCNC(=N)N)NC(=O)[C@@H](CNC(=O)[C@@H](CC(C)C)NC(=O)[C@@H](CCCNC(=N)N)NC(=O)[C@@H](CNC(=O)[C@@H](CC(C)C)NC(=O)[C@@H](CCCNC(=N)N)NC(=O)[C@@H](CNC(=O)[C@@H](CC(C)C)NC(=O)[C@H](N)CCCNC(=N)N)NC(=O)[C@@H](CC(C)C)NC(=O)[C@H](N)CCCNC(=N)N)NC(=O)[C@@H](CC(C)C)NC(=O)[C@@H](CCCNC(=N)N)NC(=O)[C@@H](CNC(=O)[C@@H](CC(C)C)NC(=O)[C@H](N)CCCNC(=N)N)NC(=O)[C@@H](CC(C)C)NC(=O)[C@H](N)CCCNC(=N)N)NC(=O)[C@@H](CC(C)C)NC(=O)[C@@H](CCCNC(=N)N)NC(=O)[C@@H](CNC(=O)[C@@H](CC(C)C)NC(=O)[C@@H](CCCNC(=N)N)NC(=O)[C@@H](CNC(=O)[C@@H](CC(C)C)NC(=O)[C@H](N)CCCNC(=N)N)NC(=O)[C@@H](CC(C)C)NC(=O)[C@H](N)CCCNC(=N)N)NC(=O)[C@@H](CC(C)C)NC(=O)[C@@H](CCCNC(=N)N)NC(=O)[C@@H](CNC(=O)[C@@H](CC(C)C)NC(=O)[C@H](N)CCCNC(=N)N)NC(=O)[C@@H](CC(C)C)NC(=O)[C@H](N)CCCNC(=N)N)C(N)=O [MSt-156, (rl)8(brl)4(brl)2(brl)] (I: H-[dR][dL][dDap]([dL-dR])[dR][dL][dDap][dR][dL][dDap][dR][dL]-NH2 / II: H-[dR][dL][dDap]([dL-dR])[dR][dL][dDap][dR][dL] / III: H-[dR][dL][dDap]([dL-dR])[dR][dL] / IV: H-[dR][dL][dDap]([dL-dR])[dR][dL]; amide I:6-IV:C, I:9-II:C, II:6-III:C) |  |  | 10 µg/mL (≈ 2.15 µM) | 7 µg/mL (≈ 1.5 µM)

Row | SMILES | MIC E. coli DH5α [3] | MIC S. aureus (COL, MRSA reference strain) [4] | visible effects and behaviour after injection (male wistar rats) | survival rate (male wistar rats) | MIC P. aeruginosa PAO1 [1] | MIC B. subtilis BR151 [2]
4 | CC(C)C[C@@H](NC(=O)[C@@H](CCCCN)NC(=O)[C@@H](CCCCNC(=O)[C@@H](CC(C)C)NC(=O)[C@@H](CCCCN)NC(=O)[C@@H](CCCCNC(=O)[C@@H](CC(C)C)NC(=O)[C@@H](CCCCN)NC(=O)[C@@H](CCCCNC(=O)[C@@H](CC(C)C)NC(=O)[C@H](N)CCCCN)NC(=O)[C@@H](CC(C)C)NC(=O)[C@H](N)CCCCN)NC(=O)[C@@H](CC(C)C)NC(=O)[C@@H](CCCCN)NC(=O)[C@@H](CCCCNC(=O)[C@@H](CC(C)C)NC(=O)[C@H](N)CCCCN)NC(=O)[C@@H](CC(C)C)NC(=O)[C@H](N)CCCCN)NC(=O)[C@@H](CC(C)C)NC(=O)[C@@H](CCCCN)NC(=O)[C@@H](CCCCNC(=O)[C@@H](CC(C)C)NC(=O)[C@@H](CCCCN)NC(=O)[C@@H](CCCCNC(=O)[C@@H](CC(C)C)NC(=O)[C@H](N)CCCCN)NC(=O)[C@@H](CC(C)C)NC(=O)[C@H](N)CCCCN)NC(=O)[C@@H](CC(C)C)NC(=O)[C@@H](CCCCN)NC(=O)[C@@H](CCCCNC(=O)[C@@H](CC(C)C)NC(=O)[C@H](N)CCCCN)NC(=O)[C@@H](CC(C)C)NC(=O)[C@H](N)CCCCN)C(N)=O [MSt-181, (kl)8(kkl)4(kkl)2(kkl)] (I: H-[dK][dL][dK]([dL-dK])[dK][dL][dK][dK][dL][dK][dK][dL]-NH2 / II: H-[dK][dL][dK]([dL-dK])[dK][dL][dK][dK][dL] / III: H-[dK][dL][dK]([dL-dK])[dK][dL] / IV: H-[dK][dL][dK]([dL-dK])[dK][dL]; amide I:6-IV:C, I:9-II:C, II:6-III:C) | 1 µg/mL (≈ 0.221 µM) |  | slightly bluish extremities which subsided after approx. 5 min | 100% | 4 µg/mL (≈ 0.882 µM) | 2 µg/mL (≈ 0.441 µM)
